From patent US7122335B1, “Compounds and methods to enhance rAAV transduction” (priority 1999, dated 2006)
“Also recorded” adds a separate entry of the source. Counter-ions that a name gives are not always drawn. Like-named read-outs stand apart in the source and are kept apart here. Peptide text beside a SMILES is read from it.

Assays:
Type in all cases: cell-based
[1] = test system: polarized human bronchial epithelial cells; details: for rAAV transduction from the basolateral surface with ubiquitin ligase (E3) inhibitors: both dipeptides combined, 2 mM pretreatment 60 minutes, 0.2 mM during 24 hours infection; for rAAV transduction from the apical (mucosal) surface, in words: apical infection, agent at time of infection (LLnL 40 μM)
Experimental: FIGS. 7A and 7B. Proteasome inhibitors differentially augment rAAV transduction from the apical or basolateral surfaces of airway epithelia. The efficiency and time course of rAAV transduction were evaluated in polarized airway epithelial cultures following infection with rAV.GFPori3 (MOI=10,000 particles/cell) in the presence or absence of 40 μM LLnL. Transgene expression was monitored by indirect fluorescence microscopy at the indicted time points by quantifying the mean number of GFP positive cells per 10× field (mean +/−SEM of 3 independent samples for each time point). The effect of LLnL treatment was compared between matched sets of tissue samples at each time point following infection from the apical (FIG. 7A) or basolateral (FIG. 7B) surfaces. The photomicrographs on the right side of each figure illustrate representative 20× fields for the 3 and 22 day post-infection time points.
FIG. 9. Effects of different agents on AAV transduction from the basal surface of polarized bronchial epithelia. Fully differentiated human bronchial airway epithelia were treated with the indicated agents at the time of AAV infection (MOI=10,000 particles/cell) from the basolateral surface. […] Since most of the tested agents (except for hydroxyurea) were dissolved in DMSO, a vehicle control of 1% (vol/vol) DMSO was also performed to exclude the possibility of a non-specific effect. GFP expression was monitored at 48 hours post-infection by counting the number of GFP positive cells per 10 random 10× fields in the culture dishes. The data represent the mean +/−SEM of three independent infections for each tested chemical.
FIG. 10. The proteasome inhibitor LLnL preferentially induces AAV transduction in ciliated cells. The cell types transduced by AAV were examined by alkaline phosphatase staining 3 days following basolateral infection of polarized epithelial cultures with AV.Alkphos infection (MOI=10,000 particles/cell) in the presence of or absence of 40 μM LLnL. […] 8 μm paraffin sections were used to histologically quantify the types of cells transduced. Three classifications were used, ciliated cells (with alkphos expression localized to the apical membrane and cilia), basal cells residing in the lower half of the epithelium with no contact with the lumen, and non-ciliated, columnar cells. Panel C (without LLnL) and D (with LLnL) show representative neutral red counter-stained cross-sections for each condition. The numbers of alkphos stained cells/2000 epithelial cells for the various cell types transduced by AAV are presented in panel E (mean +/−SEM from three independent Millicell insert samples).
FIGS. 11A and 11B. Optimization of LLnL-enhanced transduction in polarized bronchial epithelia. Differentiated transwell cultures were infected with AV.GFP3ori (10,000 particles/cell) from either the basolateral (FIG. 11A) or the apical (FIG. 11B) surface with the indicated treatments involving LLnL and/or EGTA. All infections were carried out for 24 hours and GFP transgene expression was monitored by indirect fluorescent microscopy at the indicated times. Data represent the mean (+/−SEM, N=6) for each experimental condition. Experiments were performed in triplicate on transwells derived from samples obtained from two different patients. […]

[2] = test system: primary human fibroblasts
Experimental: FIG. 6. Primary confluent fibroblasts were infected with AV.GFP3ori virus at an MOI=1000 particles/cell following treatment with brefeldin A (10 μg/ml), vinblastine (22 μM), cytochalasin B (1 μM), NH4Cl (2 mM), chloroquine (20 μm), LLnL (400 μM), and Z-LLL (4 μM), final concentration indicated in brackets. Cells were harvested at 96 hours post-infection and the transduction efficiency was compared to untreated rAAV infected cells by FACS analysis for GFP expression. To control for non-specific effects caused by toxicity of the compounds, the percentage of live cells was also assessed by the absence of propidium iodide incorporation.
80% confluent human primary fibroblasts were infected with AV.GFP3ori at an moi of 1000 DNA particles/cell. FIG. 16A depicts GFP transgene expression in the absence (left photographs) and presence of 40 μM LLnL (right photographs) at 96 hours post-infection. […] Top and bottom panels represent bright field and FITC-channel fluorescent photomicrographs, respectively. The mean (+/−SEM, N=3) percentage of cells transduced with rAAV, as measured by FACS sorting of GFP expressing cells, is presented in the bar graph of FIG. 16B. […] In this study, rAAV from infected cells was first immunoprecipitated with anti-VP1,2,3 (AAV-2 capsid) monoclonal antibody followed by Western blot detection of ubiquitin side chains using an anti-ubiquitin monoclonal antibody. […] Epithelia were infected with AV.GFP3ori (10,000 particles/cell) from the basolateral surface following treatment with ubiquitin ligase inhibitor dipeptides (0.2 mM H-Leu-Ala-OH and 0.2 mM H-His-Ala-OH).
Initial studies were performed in confluent primary human fibroblasts since dose titrations and toxicity could be quickly assessed. Selected compounds were used to treat fibroblast monolayers prior to rAAV infection. rAAV transduction was assessed at 96 hours post-infection by FACS analysis, and the percentage of dead cells was simultaneously assessed by incorporation of propidium iodide.
These tripeptides are structurally related to chloroquine but have different lipid solubility and specificity for cysteine proteases (Seglen, 1983). These molecules decrease endosomal degradation of molecules by a mechanism different than altering pH.
Transduction of polarized airway epithelial cells and primary human fibroblasts. rAAV infection of fully differentiated bronchial cells was performed as described in Duan et al. (1998). For infections from the apical surface of the airway cells, 5 μl rAAV was mixed with 50 μl of culture media and applied directly onto the apical compartment of Millicell inserts (MOI=10,000 particles/cell). During apical infection, the basolateral side of the Millicell was continuously bathed in culture media. Gene transfer to the basal side was performed by inverting Millicell inserts and applying viral vector to the bottom of the supporting filter membrane in a 50 μl volume for 2 hours. Subsequently, Millicell inserts were returned to the upright position, in the continued presence of the original viral inoculum plus an additional 450 μl of media. For both apical and basolateral infections, rAAV containing media was removed after 24 hours and replaced with either fresh culture media (for the basal side) or exposed to air (for the apical side). To test the effect of different agents on the efficiency of AAV transduction in polarized airway cells, 1 μl of each solution was mixed with AAV prior to infection of airway epithelia. Agents were usually presented during the 24 hours AAV infection period unless indicated otherwise.

[3] = test system: human bronchial epithelia; experiment: Southern blot of Hirt DNA for rAAV genomes in polarized airway epithelia; details: hypotonic EGTA treatment alone, apical infection
Experimental: FIGS. 15A–C. Examination of rAAV endocytosis by Southern blot analysis of viral DNA. Hirt DNA from AV.GFP3ori infected or mock infected (Lanes 1 and 7 in both FIGS. 15A and 15B) human bronchial epithelia were extracted for a direct examination of viral genomes by Southern blotting against a P^32-labeled EGFP probe. FIG. 15A depicts viral binding studies in the presence and absence of LLnL with or without EGTA treatment prior to apical or basolateral infection for 1 hour at 4° C. Cell surface-bound virus was completely removed by trypsin (FIG. 15A, lanes 2 through 6). To determine the amount of the surface-bound rAVV, cells were infected with AV.GFP3ori for 1 hour at 4° C. and were not treated with trypsin prior to Hirt DNA extraction. Panel A: lane 8: apical AAV infection; lane 9: apical AAV infection in the presence of LLnL; lane 10: cells were pre-treated with hypotonic EGTA prior to apical infection in the presence of LLnL; lane 11: basolateral infection; lane 12: basolateral infection in the presence of LLnL. FIG. 15B depicts the results of studies evaluating rAAV internalization from either the apical or the basolateral surface in the presence or absence of LLnL, and the internalization from the apical surface after combined treatment with hypotonic EGTA and LLnL. To detect the net amount of the internalized viral genome, all samples in FIG. 15B were treated with trypsin just before Hirt DNA was harvested. The extent of the internalized virus at 4 hours (FIG. 15B, lanes 2 through 6) and 24 hours (FIG. 15B, lanes 8 through 12) incubation at 37° C. after infection is represented by the intensity of the 1.6 kb single stranded viral genome band. FIG. 15B; lane 2; apical AAV infection for 4 hours; lane 3: apical AAV infection in the presence of LLnL for 4 hours; lane 4: cells were pre-treated with hypotonic EGTA prior to apical infection in the presence of LLnL for 4 hours; lane 5: basal infection for 4 hours; lane 6: basolateral infection in the presence of LLnL for 4 hours; lane 8: apical infection for 24 hours; lane 9: apical infection in the presence of LLnL for 24 hours; lane 10: cells were pre-treated with hypotonic EGTA prior to apical infection in the presence of LLnL for 24 hours; lane 11: basolateral infection for 24 hours; lane 12: basolateral infection in the presence of LLnL for 24 hours. […]
Molecular analysis of rAAV viral genomes owing infection of polarized airway epithelial cultures. […] Following binding, the extent of viral internalization was assessed by continuing incubations in the presence of virus at 37° C. for 4–24 hours. […] The 1.6 kb single stranded viral DNA, the 2.7 kb double stranded circular intermediate, and the 4.7 kb double stranded replication from viral genome were detected with a transgene EGFP specific probe at 5×10^6 cpm/ml. […]

[4] = confluent fibroblasts, AV.GFP3ori MOI 1000, 96 hours post-infection, brefeldin A 10 μg/ml, vinblastine 22 μM, cytochalasin B 1 μM, NH4Cl 2 mM, chloroquine 20 μm, LLnL 400 μM, Z-LLL 4 μM

| Structure (SMILES) | rAAV transduction (GFP expression) compared to untreated rAAV infected cells [2, 4] | rAAV transduction from the apical (mucosal) surface, in words [1] | further results |
| --- | --- | --- | --- |
| C[C@H](NC(=O)[C@@H](N)Cc1cnc[nH]1)C(=O)O [H-His-Ala-OH] (H-His-Ala-OH) | – | – | rAAV transduction from the basolateral surface with ubiquitin ligase (E3) inhibitors [1]: enhanced rAAV transduction |
| CCN(CC)CCCC(C)Nc1ccnc2cc(Cl)ccc12 (stereo not drawn) [chloroquine] | significantly inhibited rAAV transduction | – | – |
| COc1cc([C@@H]2c3cc4c(cc3[C@@H](O[C@@H]3O[C@@H]5CO[C@@H](C)O[C@H]5[C@H](O)[C@H]3O)[C@H]3COC(=O)[C@H]23)OCO4)cc(OC)c1O [etoposide] | – | none of these agents facilitated rAAV transduction from the apical surface | – |
| O=C(O)CN(CCOCCOCCN(CC(=O)O)CC(=O)O)CC(=O)O [EGTA] | – | – | increase in persistence of AAV DNA [3]: less than 4 fold |
| O=c1c(-c2ccc(O)cc2)coc2cc(O)cc(O)c12 [genistein] | – | none of these agents facilitated rAAV transduction from the apical surface | – |
| CC(C)C[C@H](N)C(=O)N[C@@H](C)C(=O)O [H-Leu-Ala-OH] (H-Leu-Ala-OH) | – | – | rAAV transduction from the basolateral surface with ubiquitin ligase (E3) inhibitors [1]: enhanced rAAV transduction |
| NC(=O)NO [hydroxyurea] | – | none of these agents facilitated rAAV transduction from the apical surface | – |
| C[C@H]1CCC/C=C/[C@@H]2C[C@H](O)C[C@H]2[C@H](O)/C=C/C(=O)O1 [BFA, brefeldin A] | significant enhancement of rAAV transduction | – | – |
| CC[C@@]1(O)C(=O)OCc2c1cc1n(c2=O)Cc2cc3ccccc3nc2-1 [camptothecin] | – | none of these agents facilitated rAAV transduction from the apical surface | – |
| Cl.N [NH4Cl] | – | – | rAAV transduction (GFP expression) compared to untreated rAAV infected cells [2]: significantly inhibited rAAV transduction |
| CC[C@]1(O)C[C@@H]2CN(CCc3c([nH]c4ccccc34)[C@@](C(=O)OC)(c3cc4c(cc3OC)N(C)[C@H]3[C@@](O)(C(=O)OC)[C@H](OC(C)=O)[C@]5(CC)C=CCN6CC[C@]43[C@@H]65)C2)C1 [vinblastine, vinblastine sulfate] | little effect on rAAV transduction; also recorded: did not inhibit rAAV-2 transduction | – | – |
| C=C1[C@@H](C)[C@H]2[C@H](Cc3ccccc3)NC(=O)[C@]23OC(=O)/C=C/[C@H](O)CCC[C@@H](C)C/C=C/[C@H]3[C@@H]1O [cytochalasin B] | significant decrease in rAAV transduction | – | – |
